Structures are written as SMILES.

The values that follow come from the supplement of paper PMC6723410.

For the test, the system named is GUMC-403. The test is described as follows: viability at highest tested concentration (max response) relative to DMSO (% of DMSO control); higher = less cytotoxic. As to conditions: library / dose series: MIPE library, 11-point 1:3 dilution, 48 h. A digest of the protocol: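 Plates of 1536 wells were seeded with 700 patient-derived GUMC-403 papilloma cells per well, grown by conditional reprogramming, in 5 μL F + Y medium and kept overnight at 37 °C. Compounds followed at 23 nL by pin tool over an 11-point 1:3 series, for 48 h. After a CellTiter-Glo luminescence read on a ViewLux, signals were set against vehicle wells as 100% and empty wells as 0%. The reported number is viability at the highest tested concentration relative to vehicle control.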

In the case of `CCOC(=O)Nc1ccc(NCc2ccc(F)cc2)nc1N`, where the note is “top concentration 46.1 µM”, the viability was determined as 102.

The molecule `COC(=O)C1C2CC3c4[nH]c5cc(OC)ccc5c4CCN3CC2CC(OC(=O)c2cc(OC)c(OC)c(OC)c2)C1OC` (centres undefined) displayed a viability (top concentration 46.1 µM) of 101.

In turn, `N=C(CCSCc1csc(N=C(N)N)n1)N[S+](N)(=O)[O-]` had a viability (top concentration 46.1 µM) of 124.

The molecule `CC(C)c1cc(C(C)C)c(CC(=O)N[S+](=O)([O-])Oc2c(C(C)C)cccc2C(C)C)c(C(C)C)c1` came in with a viability (top concentration 46.1 µM) of 99.7.

Under “top concentration 46.1 µM”, `Clc1cc(Cl)cc(CNc2ncncc2-c2ccc3c(c2)OCO3)c1` had a viability of 99.6.

As to `Oc1ccc(C2CNCCc3c2cc(O)c(O)c3Cl)cc1` (centres undefined), the viability (top concentration 46.1 µM) is 120.

Regarding `CC[C@H](/C=C/[C@@H](C)[C@H]1CC[C@H]2[C@@H]3CC=C4C[C@@H](O)CC[C@]4(C)[C@H]3CC[C@]12C)C(C)C`, the viability (top concentration 23 µM) amounted to 104.

For the molecule `O=C1CSC(=O)N1C(CCc1ccncc1)COc1ccc(-c2cccc([N+](=O)[O-])c2)cc1` (centres undefined), the viability (top concentration 46.1 µM) was 79.8.

`COc1ccc(C2Sc3ccccc3N(CCN(C)C)C(=O)C2OC(C)=O)cc1` (centres undefined): the viability (top concentration 46.1 µM) was found to be 110.

Molecule `COc1cc(C)c(Sc2cnc(NC(=O)c3ccc(CNC(C)C(C)(C)C)cc3)s2)cc1C(=O)N1CCN(C(C)=O)CC1` (centres undefined) registered a viability (top concentration 46.1 µM) of 71.7.

For the molecule `CC(C)(C)C(=O)Oc1ccc2c(c1)nc(NC(=O)c1cccc([N+](=O)[O-])c1)n2CCCO`, the viability (top concentration 46.1 µM) came to 106.

For the setting “top concentration 46.1 µM”, `CC(C)(C)NC(=O)[C@@H]1CN(Cc2cccnc2)CCN1C[C@@H](O)C[C@@H](Cc1ccccc1)C(=O)N[C@H]1c2ccccc2C[C@H]1O.O=S(=O)(O)O` returned a viability of 130.

For the molecule `C#CCN[C@@H]1CCc2ccccc21.CS(=O)(=O)O`, under “top concentration 46.1 µM”, the viability amounted to 89.

Regarding `CC1=C(C)C(=O)C(C(CCCCCC(=O)O)c2ccccc2)=C(C)C1=O` (centres undefined), the viability (top concentration 46.1 µM) came out at 110.

With `O=C(Nc1cccnc1)N1CCC(Cc2cccc(Oc3ccc(C(F)(F)F)cn3)c2)CC1`, the viability (top concentration 46.1 µM) is 112.

On to `Nc1cc(N2CCCCC2)nc(N)[n+]1[O-]`, for which, where the note is “top concentration 46.1 µM”, the viability was determined as 91.1.

`CC(C)C[C@@H](N)[C@H](O)C(=O)N[C@H](C(=O)N[C@H](C(=O)N[C@@H](CC(=O)O)C(=O)O)C(C)C)C(C)C` came in with a viability (top concentration 46.1 µM) of 85.7.

On to `CCOc1ccccc1N/N=C1/C(=O)N(c2nc(-c3ccccc3)cs2)N=C1C`, for which, where the note is “top concentration 46.1 µM”, the viability came out at 115.

The molecule `FC(F)(F)c1ccc(Nc2nc3cc(Oc4ccnc(-c5ncc(C(F)(F)F)[nH]5)c4)ccc3[nH]2)cc1` returned a viability (top concentration 46.1 µM) of 97.7.

`CC(C(=O)O)c1ccc2c(c1)CC(=O)c1ccccc1S2` (centres undefined) gave a viability (top concentration 46.1 µM) of 103.

Consider `CCNC(=O)Nc1ccc(Oc2ncnc(N)c2/C=N/OC)cc1Cl`, for which the viability (top concentration 46.1 µM) was determined as 109.

Consider `CC(C)Cc1ccc(C(C)C(=O)O)cc1` (centres undefined), for which the viability (top concentration 23 µM) came to 103.

`OC1=CC=C(C=C1)C/2=C/C3=C(OC2)C=C(O)C=C3`: the viability (top concentration 46.1 µM) stood at 89.4.

On to `CCCN1CCO[C@@H]2c3cc(O)ccc3OC[C@H]21`, for which the viability (top concentration 46.1 µM) came to 102.

`COc1ccc2c(c1OC)CN1CCc3cc4c(cc3C1C2)OCO4` (centres undefined) came in with a viability (top concentration 46.1 µM) of 121.

For `O=[S+]([O-])(F)Cc1ccccc1`, the viability (top concentration 46.1 µM) came to 84.1.

Where the note is “top concentration 46.1 µM”, `CCOC(=O)Nc1ccc(NCc2ccc(F)cc2)cc1N` returned a viability of 81.8.

As for `CNC(=O)c1ccc(-c2cnc3ncc(Cc4ccc5ncccc5c4)n3n2)cc1F`, the viability (top concentration 46.1 µM) stood at 103.

For the molecule `CCC(=O)N1CCN(CC1)C2=C(C=C(C=C2)N3C(=O)\C=C/C4=C3C5=CC(=CC=C5N=C4)C6=CN=C7C=CC=CC7=C6)C(F)(F)F`, the viability (top concentration 46.1 µM) was 73.8.

Consider `COC1CCC(CC1)N(C(=O)C2CCC(C)CC2)C3=C(SC(=C3)\C4=C\CCCC4)C(O)=O` (centres undefined), for which the viability (top concentration 46.1 µM) stood at 110.

Where the note is “top concentration 46.1 µM”, `O=[S+]([O-])(c1cccc2cnccc12)N1CCCNCC1` returned a viability of 128.

As for `C[C@]12CC[C@@H]3c4ccc(O)cc4CC[C@H]3[C@@H]1[C@@H](O)[C@@H](O)[C@@H]2O`, where the note is “top concentration 46.1 µM”, the viability was determined as 94.5.

Regarding `CC(=O)NC[C@H]1CN(c2ccc(N3CCOCC3)c(F)c2)C(=O)O1`, the viability (top concentration 46.1 µM) came out at 120.

For `Cc1cccc(C)c1NC(=O)CN1CCCC1=O`, the viability (top concentration 46.1 µM) is 106.

`C=CC(=O)Nc1ccc2ncnc(Nc3ccc(OCc4cccc(F)c4)c(Cl)c3)c2c1` returned a viability (top concentration 46.1 µM) of 26.3.

Consider `[NH2][Pt]1([NH2])[O]CC(=O)[O]1`, for which the viability (top concentration 46.1 µM) stood at 142.

Regarding `Cn1c(Nc2ccc(C(F)(F)F)cc2)nc2cc(Oc3ccnc(-c4nc(C(F)(F)F)c[nH]4)c3)ccc21`, the viability (top concentration 46.1 µM) was found to be 92.4.

For the setting “top concentration 46.1 µM”, `NC(=O)c1cccc(N)c1` came in with a viability of 109.

The molecule `Cn1c(CCCC(=O)O)nc2cc(N(CCCl)CCCl)ccc21` yielded a viability (top concentration 46.1 µM) of 124.

In turn, `COC1=CC=C2[C@H]3CC[C@]4(C)[C@H](CC[C@H]4[C@@H]3CCC2=C1)NCCCCCCN5C(=O)\C=C/C5=O` came in with a viability (top concentration 46.1 µM) of 129.

Under “top concentration 46.1 µM”, `COc1cc2c(Nc3ccc(NC(=O)c4ccccc4)cc3)ncnc2cc1OCCCN1CCOCC1` gave a viability of 117.

Under “top concentration 46.1 µM”, `CC1(C)CCC(C)(C)c2cc(NC(=O)c3ccc(C(=O)O)cc3)ccc21` showed a viability of 54.2.

On to `Nc1ncnc2c1nc(Cl)n2[C@@H]1O[C@H](CO)[C@@H](O)[C@H]1O`, for which the viability (top concentration 46.1 µM) amounted to 46.

For the setting “top concentration 46.1 µM”, `CC1(C)CC(=O)c2c(C(F)(F)F)nn(-c3ccc(C(N)=O)c(NC4CCC(OC(=O)CN)CC4)c3)c2C1` (centres undefined) had a viability of 84.3.

The molecule `CC(=O)O[C@H]1C[C@@H]2CC[C@@H]3[C@H](CC[C@@]4(C)[C@H]3C[C@H]([N+]3(C)CCCCC3)[C@@H]4OC(C)=O)[C@@]2(C)C[C@@H]1N1CCCCC1` had a viability (top concentration 46.1 µM) of 130.

Regarding `CN(C)[C@H]\1[C@@H]2[C@@H](O)[C@H]3\C(=C(O)/[C@]2(O)C(=O)\C(=C1O)C(N)=O)C(=O)C4=C(C=CC=C4O)[C@@]3(C)O`, the viability (top concentration 46.1 µM) was determined as 114.

Regarding `Cc1c(C(=O)NN2CCCCC2)nn(-c2ccc(Cl)cc2Cl)c1-c1ccc(Cl)cc1`, under “top concentration 46.1 µM”, the viability amounted to 109.

Regarding `C[N+](C)(C)CC(=O)O.[Cl-]`, under “top concentration 46.1 µM”, the viability amounted to 113.

For the setting “top concentration 46.1 µM”, `CC/1=C(\CCN2CCC(CC2)C3=NOC4=C3C=CC(=C4)F)C(=O)N/5CCCCC5=N1` showed a viability of 114.

For the molecule `COc1cc(C(C)C)c(Oc2cnc(NC(CO)CO)nc2N)cc1I`, for the setting “top concentration 46.1 µM”, the viability came out at 115.

Regarding `COCCOc1nc(-c2ccc(Cl)c(Cl)c2)n(-c2ccc(NC(=O)CCl)cc2)n1`, the viability (top concentration 46.1 µM) came to 85.8.

The molecule `CCCCOc1ccc(CC(=O)NO)cc1` had a viability (top concentration 46.1 µM) of 109.

Where the note is “top concentration 46.1 µM”, `NC\1=N\C(=O)N(\C=C1)[C@@H]2O[C@H](CO)[C@@H](O)[C@H]2O` came in with a viability of 128.

The molecule `C[C@]12CC[C@H]3[C@@H](CCC/4=C/C(=O)CC[C@]34C)[C@@H]1CC[C@@H]2O` displayed a viability (top concentration 46.1 µM) of 112.

Where the note is “top concentration 46.1 µM”, `O=[S+]([O-])(/N=C/c1c(O)ccc2ccccc12)c1cccs1` registered a viability of 87.9.

In turn, `O=C(c1cncc(Br)c1)N1CCC(N2CCCC2)CC1` gave a viability (top concentration 46.1 µM) of 115.

For the setting “top concentration 46.1 µM”, `CC(C)C(C)/C=C/C(C)C1CCC2C3=CC=C4CC(O)CCC4(C)C3CCC21C` (centres undefined) yielded a viability of 130.

For the molecule `CNCC(O)c1ccc(O)cc1` (centres undefined), under “top concentration 46.1 µM”, the viability stood at 132.

Consider `O=C(Oc1ccc([N+](=O)[O-])cc1)N1CCC(C(O)(c2ccc3c(c2)OCO3)c2ccc3c(c2)OCO3)CC1`, for which the viability (top concentration 46.1 µM) came to 105.
